From US20250041232A1, “MICROSPHERES COMPRISING HIGH-DOSE VARENICLINE, METHOD FOR PREPARING SAME, AND PHARMACEUTICAL COMPOSITION COMPRISING SAME” (AULBIO CO., LTD., priority 2021, published 2025)

Experiment: Measurement of varenicline loading amount and encapsulation efficiency in microspheres (HPLC)
Assay type: physicochemical
Conditions: microspheres dissolved in acetonitrile/80% methanol, HPLC-UV
Protocol: About 10 mg of the microspheres prepared in Example 2 and Comparative Examples 1 and 2 were taken, placed in a 20 mL flask, and completely dissolved in 2 mL of acetonitrile (manufacturer: Honeywell). It was adjusted to the mark with 80% methanol (manufacturer: Honeywell) and filtered through a 0.45 μm syringe filter. This solution was detected with an ultraviolet-visible spectrophotometer using HPLC (equipment name: Agilent). L1 (inner diameter 4.6 mm×150 mm, thickness 5 μm) was used as the column.

varenicline pamoate salt
Encapsulation efficiency (%): more than 90%
